In patent US4632932A, “Antimycotic agents” (Bayer Aktiengesellschaft, priority 1982, dated 1986):

Legend:
Candida albicans = assay: Antimycotic in vitro activity, series dilution test (MIC), Candida albicans; format: cell-based; parameters: unit not given here; details: meat extract/glucose broth, 20° C., 24 to 96 hours
Protocol: (§1) Description of the experiment:
(§2) The in vitro tests were carried out in a series dilution test with germ inocula of an average of 5×10^4 germs/ml of substrate. The nutrient medium was (a) for dermatophytes and moulds: Sabourand's milieu d'epreuve and (b) for yeasts: meat extract/glucose broth.
(§3) The incubation temperature was 20° C. and the duration of incubation was 24 to 96 hours in the case of yeasts and 96 hours in the case of dermatophytes and moulds.

Aspergillus fumigatus = assay: Antimycotic in vitro activity, series dilution test (MIC), Aspergillus fumigatus; format: cell-based; parameters: unit not given here; details: Sabourand's milieu d'epreuve, 20° C., 96 hours
Protocol: as §1, §2, §3

Torulopsis glabrata = assay: Antimycotic in vitro activity, series dilution test (MIC), Torulopsis glabrata; format: cell-based; parameters: unit not given here; details: meat extract/glucose broth, 20° C., 24 to 96 hours
Protocol: as §1, §2, §3

Trichophyton mentagr. = assay: Antimycotic in vitro activity, series dilution test (MIC), Trichophyton mentagr.; format: cell-based; parameters: unit not given here; details: Sabourand's milieu d'epreuve, 20° C., 96 hours
Protocol: as §1, §2, §3

Microsporum canis = assay: Antimycotic in vitro activity, series dilution test (MIC), Microsporum canis; format: cell-based; parameters: unit not given here; details: Sabourand's milieu d'epreuve, 20° C., 96 hours
Protocol: as §1, §2, §3

[1] = system: dermatophytes, moulds and yeasts; assay: Antimycotic in vitro activity, series dilution test, overall comparison; format: cell-based
Protocol: as §1, §2, §3

Candida cells = assay: Antimycotic in vivo activity (oral) in candidosis of mice; parameters: species or system Mice of the SPF-CF1 type; details: 50-100 mg/kg
Protocol: Description of the experiment
Mice of the SPF-CF1 type were infected intravenously with 1-2×10^6 logarithmically growing Candida cells, which are suspended in physiological sodium chloride solution. The animals were treated orally one hour before and seven hours after the infection, with, in each case, 50-100 mg/kg of body weight of the formulations.
Untreated animals died 3 to 6 days after infection. The survival rate on the 6th day after infection was about 5% in the case of untreated control animals.

[2] = system: trichophyton of mentagrophytes; assay: Antimicrobial in vivo activity (local) in the model of experimental guinea-pig trichophytosis; details: once daily, 15% strength solution

1-(2-methylphenoxy)-3,3-dimethyl-2-(1,2,4-triazol-1-yl-methyl)-2-butanol [(C)]
MIC values (Candida albicans): 32
MIC values (Aspergillus fumigatus): > 64
MIC values (Torulopsis glabrata): > 64
MIC values (Trichophyton mentagr.): 32

1-(2-methylphenoxy)-3,3-dimethyl-2-(imidazol-1-yl-methyl)-2-butanol [(B)]
MIC values (Candida albicans): 32
MIC values (Aspergillus fumigatus): 32
MIC values (Torulopsis glabrata): > 64
MIC values (Trichophyton mentagr.): 4
MIC values (Microsporum canis): 4

CC(C)(C1OCCO1)C(O)(Cn1cncn1)c1ccc(Cl)cc1 (stereo not shown) [Example 3, 3-(1,3-dioxolan-2-yl)-2-(4-chlorophenyl)-3-methyl-1-(1,2,4-triazol-1-yl)-butan-2-ol]
antimycotic action in vitro compared with compounds (A), (B), (C) and (D) [1]: better antimycotic action
action compared with compounds (A), (B), (C) and (D) (Candida cells): better action

CC(C)(C1OCCO1)C(O)(CCc1ccc(Cl)cc1Cl)Cn1cncn1 (stereo not shown) [Example 5, 1-(2,4-dichlorophenyl)-4-(1,3-dioxolan-2-yl)-4-methyl-3-(1,2,4-triazol-1-yl-methyl)-pentan-3-ol naphthalene-1,5-disulphonate]
antimycotic action in vitro compared with compounds (A), (B), (C) and (D) [1]: better antimycotic action

CC(C)(C1OCCO1)C(O)(CCc1ccc(Cl)cc1)Cn1cncn1 (stereo not shown) [Example 7]
antimycotic action in vitro compared with compounds (A), (B), (C) and (D) [1]: better antimycotic action
action (statement in words) [2]: an action or a good action
action compared with compounds (A), (B), (C) and (D) (Candida cells): better action

CC1(C(O)(CCc2ccc(Cl)cc2Cl)Cn2cncn2)COCOC1 (stereo not shown) [Example 8]
antimycotic action in vitro compared with compounds (A), (B), (C) and (D) [1]: better antimycotic action
action (statement in words) [2]: an action or a good action
action compared with compounds (A), (B), (C) and (D) (Candida cells): better action

CC1(C(O)(CCc2ccc(Cl)cc2)Cn2cncn2)COCOC1 (stereo not shown) [Example 9]
antimycotic action in vitro compared with compounds (A), (B), (C) and (D) [1]: better antimycotic action
action (statement in words) [2]: an action or a good action
action compared with compounds (A), (B), (C) and (D) (Candida cells): better action

CC(C)(C1OCCO1)C(O)(C=Cc1ccc(Cl)cc1)Cn1cncn1 (stereo not shown) [Example 10]
antimycotic action in vitro compared with compounds (A), (B), (C) and (D) [1]: better antimycotic action
action (statement in words) [2]: an action or a good action
action compared with compounds (A), (B), (C) and (D) (Candida cells): better action

CC(C)(C1OCCO1)C(O)(C=Cc1ccc(Cl)cc1Cl)Cn1cncn1 (stereo not shown) [Example 11]
antimycotic action in vitro compared with compounds (A), (B), (C) and (D) [1]: better antimycotic action

CC1(C(O)(C=Cc2ccc(Cl)cc2)Cn2cncn2)COCOC1 (stereo not shown) [Example 12]
antimycotic action in vitro compared with compounds (A), (B), (C) and (D) [1]: better antimycotic action

CC1(C(O)(C=Cc2ccc(Cl)cc2)Cn2cncn2)COCOC1 (stereo not shown) [Example 13]
antimycotic action in vitro compared with compounds (A), (B), (C) and (D) [1]: better antimycotic action

CC(C)(C1OCCO1)C(O)(COc1ccc(-c2ccccc2)cc1)Cn1cncn1 (stereo not shown) [Example 14]
antimycotic action in vitro compared with compounds (A), (B), (C) and (D) [1]: better antimycotic action
action (statement in words) [2]: an action or a good action
action compared with compounds (A), (B), (C) and (D) (Candida cells): better action

CC(C)(C1OCCO1)C(O)(COc1ccc(Cl)cc1)Cn1cncn1 (stereo not shown) [Example 15]
antimycotic action in vitro compared with compounds (A), (B), (C) and (D) [1]: better antimycotic action
action compared with compounds (A), (B), (C) and (D) (Candida cells): better action

CC1(C(O)(COc2ccc(Cl)cc2)Cn2cncn2)COCOC1 (stereo not shown) [Example 16]
antimycotic action in vitro compared with compounds (A), (B), (C) and (D) [1]: better antimycotic action
action compared with compounds (A), (B), (C) and (D) (Candida cells): better action

CC(C)(C1OCCO1)C(O)(CCc1ccc(Cl)cc1)Cn1ccnc1 (stereo not shown) [Example 19]
antimycotic action in vitro compared with compounds (A), (B), (C) and (D) [1]: better antimycotic action
action (statement in words) [2]: an action or a good action
action compared with compounds (A), (B), (C) and (D) (Candida cells): better action

CC(C)(C1OCCO1)C(O)(CCc1ccc(Cl)cc1Cl)Cn1ccnc1 (stereo not shown) [Example 20]
antimycotic action in vitro compared with compounds (A), (B), (C) and (D) [1]: better antimycotic action
action (statement in words) [2]: an action or a good action
action compared with compounds (A), (B), (C) and (D) (Candida cells): better action

CC1(C(O)(CCc2ccc(Cl)cc2Cl)Cn2ccnc2)COCOC1 (stereo not shown) [Example 21]
antimycotic action in vitro compared with compounds (A), (B), (C) and (D) [1]: better antimycotic action
action (statement in words) [2]: an action or a good action
action compared with compounds (A), (B), (C) and (D) (Candida cells): better action

CC1(C(O)(CCc2ccc(Cl)cc2)Cn2ccnc2)COCOC1 (stereo not shown) [Example 22]
action (statement in words) [2]: an action or a good action
action compared with compounds (A), (B), (C) and (D) (Candida cells): better action

CC(C)(C1OCCO1)C(O)(C=Cc1ccc(Cl)cc1)Cn1ccnc1 (stereo not shown) [Example 23]
antimycotic action in vitro compared with compounds (A), (B), (C) and (D) [1]: better antimycotic action
action (statement in words) [2]: an action or a good action
action compared with compounds (A), (B), (C) and (D) (Candida cells): better action

CC1(C(O)(COc2ccc(Cl)cc2)Cn2ccnc2)COCOC1 (stereo not shown) [Example 26]
action compared with compounds (A), (B), (C) and (D) (Candida cells): better action
